From article PMC12155096 (International Journal of Molecular Sciences, 2025)
Counter-ions that a name gives are not always drawn. Like-named read-outs stand apart in the source and are kept apart here.

Legend:
[1] = target: Photinus pyralis (firefly) luciferase (Photinus pyralis, UniProt P08659); experiment: biochemical; type: biochemical
human CYP1A2 [2] = target: T1, human CYP1A2 (Homo sapiens, UniProt P05177); experiment: biochemical
T1 sequence (P05177 1-516): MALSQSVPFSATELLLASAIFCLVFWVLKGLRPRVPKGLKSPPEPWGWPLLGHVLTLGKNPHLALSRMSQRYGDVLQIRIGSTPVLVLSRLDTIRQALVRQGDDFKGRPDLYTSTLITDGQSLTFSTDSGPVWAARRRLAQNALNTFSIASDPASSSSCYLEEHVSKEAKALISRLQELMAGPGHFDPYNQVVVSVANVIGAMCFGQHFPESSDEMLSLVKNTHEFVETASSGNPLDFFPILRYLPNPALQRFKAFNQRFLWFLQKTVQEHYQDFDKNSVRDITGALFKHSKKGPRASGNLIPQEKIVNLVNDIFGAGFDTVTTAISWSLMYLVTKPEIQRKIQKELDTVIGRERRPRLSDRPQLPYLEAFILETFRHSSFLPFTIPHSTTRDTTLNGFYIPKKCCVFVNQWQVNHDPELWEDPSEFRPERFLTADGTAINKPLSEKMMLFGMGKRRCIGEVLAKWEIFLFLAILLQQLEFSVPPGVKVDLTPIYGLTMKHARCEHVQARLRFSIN

human CYP2C9 [3] = target: T2, human CYP2C9 (Homo sapiens, UniProt P11712); experiment: biochemical; conditions: for AC50: CYP2C9 AC50 (half-maximal activity concentration)
T2 sequence (P11712 whole entry): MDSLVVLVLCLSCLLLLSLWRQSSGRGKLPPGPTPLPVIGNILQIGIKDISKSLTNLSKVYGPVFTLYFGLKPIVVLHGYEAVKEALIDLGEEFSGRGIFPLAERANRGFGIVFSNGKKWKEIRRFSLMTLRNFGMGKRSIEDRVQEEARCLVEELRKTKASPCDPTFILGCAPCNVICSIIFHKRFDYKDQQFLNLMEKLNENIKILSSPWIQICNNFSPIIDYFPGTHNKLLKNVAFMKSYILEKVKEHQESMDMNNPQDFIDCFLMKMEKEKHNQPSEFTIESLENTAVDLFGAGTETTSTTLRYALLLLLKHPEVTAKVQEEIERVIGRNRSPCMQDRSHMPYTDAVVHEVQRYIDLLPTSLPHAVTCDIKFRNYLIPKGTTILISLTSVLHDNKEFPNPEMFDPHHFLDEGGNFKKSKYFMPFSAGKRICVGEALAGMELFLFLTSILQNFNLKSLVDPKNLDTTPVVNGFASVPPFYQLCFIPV

human CYP2C19 [4] = target: T3, human CYP2C19 (Homo sapiens, UniProt P33261); experiment: biochemical; conditions: for AC50: CYP2C19 AC50 (half-maximal activity concentration)
T3 sequence (P33261 whole entry): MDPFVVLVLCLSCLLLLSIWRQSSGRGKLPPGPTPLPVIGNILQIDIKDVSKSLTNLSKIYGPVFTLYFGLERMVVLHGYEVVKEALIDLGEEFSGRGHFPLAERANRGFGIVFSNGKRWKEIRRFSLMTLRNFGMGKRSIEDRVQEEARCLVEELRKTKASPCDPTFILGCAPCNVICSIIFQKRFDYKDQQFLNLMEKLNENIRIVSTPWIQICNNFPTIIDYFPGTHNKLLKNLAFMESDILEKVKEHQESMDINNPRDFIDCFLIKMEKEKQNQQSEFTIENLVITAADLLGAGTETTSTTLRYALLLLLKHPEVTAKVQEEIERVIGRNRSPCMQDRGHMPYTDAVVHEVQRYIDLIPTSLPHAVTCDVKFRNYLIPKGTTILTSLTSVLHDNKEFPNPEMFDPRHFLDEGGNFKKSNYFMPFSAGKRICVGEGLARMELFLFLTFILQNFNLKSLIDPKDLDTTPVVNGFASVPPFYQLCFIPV

human CYP2D6 = human CYP2D6 (Homo sapiens, UniProt P10635); experiment: biochemical
human CYP2D6, sequence (P10635 whole entry): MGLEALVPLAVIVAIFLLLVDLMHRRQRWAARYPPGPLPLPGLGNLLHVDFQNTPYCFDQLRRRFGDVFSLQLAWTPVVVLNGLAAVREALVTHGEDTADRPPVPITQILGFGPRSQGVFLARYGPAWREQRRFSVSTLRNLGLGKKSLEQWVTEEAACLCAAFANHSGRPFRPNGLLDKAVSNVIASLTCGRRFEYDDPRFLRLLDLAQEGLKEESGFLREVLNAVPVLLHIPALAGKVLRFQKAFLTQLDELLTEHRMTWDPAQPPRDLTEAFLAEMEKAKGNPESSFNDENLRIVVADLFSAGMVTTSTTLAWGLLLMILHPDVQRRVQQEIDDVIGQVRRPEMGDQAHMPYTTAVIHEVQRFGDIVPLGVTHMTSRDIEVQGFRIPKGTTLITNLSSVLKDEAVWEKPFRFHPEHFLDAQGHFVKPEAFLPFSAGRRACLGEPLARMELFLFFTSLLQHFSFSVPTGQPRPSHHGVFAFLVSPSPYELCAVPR

CYP3A4 = CYP3A4 (Homo sapiens, UniProt P08684); experiment: biochemical
CYP3A4, sequence (P08684 whole entry): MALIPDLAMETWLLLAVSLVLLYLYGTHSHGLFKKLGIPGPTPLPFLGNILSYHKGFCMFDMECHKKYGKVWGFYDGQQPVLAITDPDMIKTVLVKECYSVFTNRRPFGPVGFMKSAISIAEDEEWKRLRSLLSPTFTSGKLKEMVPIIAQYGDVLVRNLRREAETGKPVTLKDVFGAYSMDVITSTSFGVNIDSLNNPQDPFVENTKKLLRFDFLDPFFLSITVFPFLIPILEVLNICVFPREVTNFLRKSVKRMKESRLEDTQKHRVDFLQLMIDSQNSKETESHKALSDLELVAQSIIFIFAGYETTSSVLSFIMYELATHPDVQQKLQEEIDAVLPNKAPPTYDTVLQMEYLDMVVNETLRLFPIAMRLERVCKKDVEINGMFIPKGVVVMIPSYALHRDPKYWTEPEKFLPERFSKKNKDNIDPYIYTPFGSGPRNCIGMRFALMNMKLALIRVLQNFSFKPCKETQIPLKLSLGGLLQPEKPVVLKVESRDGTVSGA

human CYP1A2 [5] = target: T1, human CYP1A2
human CYP2C9 [6] = target: T2, human CYP2C9
human CYP2C19 [7] = target: T3, human CYP2C19
[8] = CYP2C9 IC50 (half-maximal inhibitory concentration)
[9] = CYP2C19 IC50 (half-maximal inhibitory concentration)
[10] = CYP2D6 IC50 (half-maximal inhibitory concentration)
[11] = CYP3A4 IC50 (half-maximal inhibitory concentration)
[12] = CYP1A2 IC50 (half-maximal inhibitory concentration)
[13] = CYP1A2 AC50 (half-maximal activity concentration)
[14] = CYP2D6 AC50 (half-maximal activity concentration)
[15] = CYP3A4 AC50 (half-maximal activity concentration)

Photinus pyralis (firefly) luciferase, sequence (P08659 whole entry): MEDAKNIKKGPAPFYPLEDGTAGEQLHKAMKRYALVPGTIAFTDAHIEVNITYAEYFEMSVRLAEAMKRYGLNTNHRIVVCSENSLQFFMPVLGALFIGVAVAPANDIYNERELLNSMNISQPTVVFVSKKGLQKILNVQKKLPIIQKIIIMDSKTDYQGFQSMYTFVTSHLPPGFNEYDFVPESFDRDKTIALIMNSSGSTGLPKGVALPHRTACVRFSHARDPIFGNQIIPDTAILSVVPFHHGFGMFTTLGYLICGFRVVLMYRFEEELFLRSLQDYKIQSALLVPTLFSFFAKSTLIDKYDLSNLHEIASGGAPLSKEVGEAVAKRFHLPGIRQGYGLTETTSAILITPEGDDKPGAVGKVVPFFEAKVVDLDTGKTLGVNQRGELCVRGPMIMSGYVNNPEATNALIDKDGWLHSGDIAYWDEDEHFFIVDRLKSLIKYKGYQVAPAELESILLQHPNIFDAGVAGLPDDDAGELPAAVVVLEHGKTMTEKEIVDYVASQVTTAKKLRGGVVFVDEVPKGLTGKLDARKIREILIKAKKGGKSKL

Row | SMILES | Luciferase IC50 (half-maximal inhibitory concentration) [1] | IC50 (human CYP2C9 [3]; [8]) [µM] | IC50 (human CYP2C19 [4]; [9]) [µM] | IC50 (human CYP2D6; [10]) [µM] | IC50 (CYP3A4; [11]) [µM] | IC50 (human CYP1A2 [2]; [12]) [µM] | AC50 (human CYP1A2 [2]; [13]) [µM] | AC50 (human CYP2C19 [4]) [µM] | AC50 (human CYP2D6; [14]) [µM] | AC50 (CYP3A4; [15]) [µM] | further results
1 | ClC1=C(Cl)C2(Cl)C3C4C=CC(C4)C3C1(Cl)C2(Cl)Cl (stereo not drawn) [Aldrin] |  |  |  |  |  |  |  |  |  |  | Luciferase IC50 [1]: Inactive; IC50 (human CYP1A2 [2]; CYP1A2 IC50): 35.5 µM; IC50 (human CYP2C9 [3]; CYP2C9 IC50): 33.6 µM; IC50 (human CYP2C19 [4]; CYP2C19 IC50): 27.8 µM; IC50 (human CYP2D6; CYP2D6 IC50): 44.9 µM; IC50 (CYP3A4; CYP3A4 IC50): 0.28 µM
2 | COc1ccc(C(O)(c2cncnc2)C2CC2)cc1 (stereo not drawn) [Ancymidol] | Inactive | 38.2 | 19.3 | 47 | 0.8 |  |  |  |  |  | CYP1A2 IC50 (half-maximal inhibitory concentration) (human CYP1A2 [5]): Inactive
3 | CC(C)(C)C(O)C(Oc1ccc(-c2ccccc2)cc1)n1cncn1 (stereo not drawn) [Bitertanol] | Inactive | 7.56 | 48.3 | 63.5 | 0.67 | 48.8 |  |  |  |  | 
4 | Clc1ccc(C2(Cn3cncn3)CC(Br)CO2)c(Cl)c1 (stereo not drawn) [Bromuconazole] | Inactive | 3.35 | 0.12 | 21 | 0.08 | 21.7 |  |  |  |  | 
5 | CCCCOCN(C(=O)CCl)c1c(CC)cccc1CC [Butachlor] | Inactive | 5.09 | 0.83 | 50.9 | 6.9 | 51.6 |  |  |  |  | 
6 | CCOCn1c(-c2ccc(Cl)cc2)c(C#N)c(Br)c1C(F)(F)F [Chlorfenapyr] | Inactive | 9.71 | 4.66 | 33 | 37 | 0.6 |  |  |  |  | 
7 | O=C1c2ccccc2C(=O)C1C(=O)C(c1ccccc1)c1ccc(Cl)cc1 (stereo not drawn) [Chlorophacinone] | Inactive | 0.76 | 11 | 44.9 | 33.6 | 8.52 | 8.52 | 11 | 44.9 | 33.6 | AC50 (human CYP2C9 [3]): 0.76 µM
8 | COc1cc(N)c(Cl)cc1C(=O)NC1CCN(Cc2ccccc2)CC1 [Clebopride maleate] | Inactive |  |  |  |  |  |  |  |  |  | CYP1A2 IC50 (half-maximal inhibitory concentration) (human CYP1A2 [5]): Inactive; CYP2C9 IC50 (half-maximal inhibitory concentration) (human CYP2C9 [6]): Inactive; IC50 (human CYP2C19 [4]): 38.9 µM; IC50 (human CYP2D6): 0.03 µM; IC50 (CYP3A4): 2.06 ± 0.47 µM
9 | CCOP(=S)(OCC)SC(CCl)N1C(=O)c2ccccc2C1=O (stereo not drawn) [Dialifor] | Inactive |  | 0.38 |  | 1.65 | 68.4 |  |  |  |  | IC50 (human CYP2C9 [3]): 1.13 µM; IC50 (human CYP2D6): 38.5 µM
10 | COC(=O)N(C(=O)N1CO[C@@]2(C(=O)OC)Cc3cc(Cl)ccc3C2=N1)c1ccc(OC(F)(F)F)cc1 [Indoxacarb] | Inactive | 3.35 | 0.17 | 14 | 2.61 |  |  |  |  |  | CYP1A2 IC50 (half-maximal inhibitory concentration) (human CYP1A2 [5]): Inactive
11 | Cc1ccnc2ccccc12 [Lepidine] |  |  |  |  |  |  |  |  |  |  | CYP2C9 AC50 (half-maximal activity concentration) (human CYP2C9 [6]): Inconclusive activator; CYP2C19 AC50 (half-maximal activity concentration) (human CYP2C19 [7]): Inconclusive; AC50 (human CYP1A2 [2]): 38.4 µM; AC50 (human CYP2D6): 61.3 µM; AC50 (CYP3A4): 31.1 µM
12 | COc1cccc(C(=O)NN(C(=O)c2cc(C)cc(C)c2)C(C)(C)C)c1C [Methoxyfenozide] | Inactive | 18.1 | 3.43 | 44 | 0.74 |  |  |  |  |  | CYP1A2 IC50 (half-maximal inhibitory concentration) (human CYP1A2 [5]): Inactive
13 | CNC(=O)Oc1cc(C)cc(C(C)C)c1 [Promecarb] |  |  |  |  |  |  | 26.9 | 42.2 | 58.1 | 25.3 | CYP2C9 AC50 (half-maximal activity concentration) (human CYP2C9 [6]): Inactive
14 | O=C(CCN1CCC(c2ccccc2)C1)c1ccc2c(c1)OCCO2 (stereo not drawn) [Proroxan] |  |  |  |  |  |  | 32.3 | 39.1 | 2.28 | 28.8 | CYP2C9 AC50 (half-maximal activity concentration) (human CYP2C9 [6]): Inconclusive inhibitor
15 | Cc1ccccc1OP(=O)(Oc1ccccc1C)Oc1ccccc1C [Tri-o-cresyl phosphate] |  |  |  |  |  |  | 32 | 1.3 | 43.3 | 2.11 | AC50 (human CYP2C9 [3]): 4.9 µM
16 | COP(=O)(OC)O/C(=C\Cl)c1cc(Cl)c(Cl)cc1Cl [Z-Tetrachlorvinphos] |  |  |  |  |  |  | 2.28 | 5.82 | 56.6 | 2.49 | AC50 (human CYP2C9 [3]): 38.8 µM
